Where “and” joins values, the source holds several entries; their conditions need not be identical. Equal entries are not always repeated.
Key:
[1] = biological target: T1, WGR domain of PARP2 (Homo sapiens, UniProt Q9UGN5); assay: Circular dichroism spectroscopy of the WGR domain (BeStSel secondary structure analysis); set-up: content of a-helix in the WGR domain / content of b-sheet in the WGR domain / content of turn in the WGR domain / content of random coil in the WGR domain: unit not given here
T1 construct: WGR domain of PARP2 (residues 77–220) into pET-15b-TEV expression vector; 6xHis (pET-15b-TEV) (N, cleaved yes); made in house; host or cells: Escherichia coli Rosetta2 (DE3) pLysS
T1 sequence (Q9UGN5 77-220): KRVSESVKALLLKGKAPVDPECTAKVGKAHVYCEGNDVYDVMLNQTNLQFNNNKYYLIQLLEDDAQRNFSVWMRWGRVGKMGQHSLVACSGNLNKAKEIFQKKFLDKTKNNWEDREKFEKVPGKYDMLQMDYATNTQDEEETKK
Description: CD spectra of proteins were recorded within the 190-250 nm spectral range with 0.2 nm step using Jasco-810 spectrophotometer (Jasco, Japan) and the quartz […]® cuvette of 0.1 mm thickness (Hellma, Germany. Secondary structure analysis was performed using BeStSel webserver. To improve the reliability of the analysis, the content of canonical secondary structures of various types was predicted for 3-6 independent measurements, and the values were averaged. The statistical significance of the secondary structure difference was determined using the multiple t-test.

[2] = biological target: PARP2 (Mus musculus, UniProt O88554); assay: Tryptophan fluorescence spectroscopy of PARP2 with Zn2+; type: binding; set-up: Recombinant mouse full-length PARP2 was obtained in the baculovirus expression system; made in house; host or cells: Sf9 insect cells (baculovirus); gift of Prof; O. Lavrik; conditions: PARP2 0.5 µM, Zn2+ 377 µM
PARP2, sequence (O88554 whole entry): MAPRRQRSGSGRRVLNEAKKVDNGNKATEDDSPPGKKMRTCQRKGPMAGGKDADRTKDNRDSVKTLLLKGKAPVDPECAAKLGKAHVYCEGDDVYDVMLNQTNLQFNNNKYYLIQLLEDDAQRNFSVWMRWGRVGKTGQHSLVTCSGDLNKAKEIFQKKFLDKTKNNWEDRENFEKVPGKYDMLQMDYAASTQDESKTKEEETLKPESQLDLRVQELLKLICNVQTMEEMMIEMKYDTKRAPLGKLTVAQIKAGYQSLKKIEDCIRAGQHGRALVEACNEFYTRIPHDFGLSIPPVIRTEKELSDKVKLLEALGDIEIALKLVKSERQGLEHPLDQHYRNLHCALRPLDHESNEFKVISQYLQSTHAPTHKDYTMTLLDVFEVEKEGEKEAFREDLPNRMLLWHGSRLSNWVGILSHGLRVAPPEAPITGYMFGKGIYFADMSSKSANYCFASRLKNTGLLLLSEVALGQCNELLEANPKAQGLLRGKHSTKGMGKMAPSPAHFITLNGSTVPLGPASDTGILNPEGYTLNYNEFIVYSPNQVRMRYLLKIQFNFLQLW
Description: Fluorescence spectra of Trp residues were measured in the 300–450 nm spectral range at the 270 nm excitation wavelengths using the Cary Eclipse spectrofluorometer (Varian/Agilent, USA).
Fluorescence of PARP2 was measured at 0.5 µM in a buffer containing 7% glycerin, 33 µM HEPES (pH 8.0), 75 mM NaCl, 89 µM EDTA, 27 µM ZnCl2, 1.5 µM TCEP. A solution of PARP2 was complemented with ZnCl2 to 377 µM.

[3] = biological target: T2, WGR domain-nucleosome complexes (Homo sapiens, UniProt Q9UGN5); assay: spFRET microscopy of WGR domain-nucleosome complexes; conditions: Np nucleosomes, WGR domain plus 2 mM Zn2+
T2 construct: WGR domain of PARP2 (residues 77–220) into pET-15b-TEV expression vector; 6xHis (pET-15b-TEV) (N, cleaved yes); made in house; host or cells: Escherichia coli Rosetta2 (DE3) pLysS (WGR)
Description: In the study of nucleosome-PARP2 interactions, nucleosomes (1–2 nM) were incubated with PARP2 (12.5–200 nM) in buffer A (50 mM Tris-HCl pH 7.5; 40 mM NaCl; 0.5 mM β-mercaptoethanol (β-ME); 0.1% NP40) at 25 °C for 30 min. When indicated, buffer A was supplemented with 50 µM – 5 mM ZnCl2, 5 mM CaCl2 or 5 mM MgCl2. To study the stability of Zn^2+-PARP2-nucleosome complexes, PARP2-nucleosome complexes that have been formed for 30 min in buffer A containing 50 nM PARP2 and 0.15 mM Zn^2+ ions were mixed with EDTA (10 mM) and incubated for 15 min. In the studies of PARylation, NAD+ (0.5–10 µM) was mixed with nucleosomes (1–2 nM) and PARP2 (100 nM) in buffer A and incubated for 45 min at 25 °C.
spFRET measurements in solution were performed as described previously. Each measured single nucleosome was characterized by FRET between Cy3 and Cy5 labels calculated as a proximity ratio (EPR):1 [drawing 1]
Where I3 and I5 are fluorescence intensities of Cy3 and Cy5, respectively, and coefficients 0.19 and 0.81 provide correction for the spectral cross-talk between Cy3 and Cy5 detection channels. […] Relative frequency distributions of nucleosomes by EPR values, i.e. EPR profiles, (2000–5000 nucleosomes per experiment; 3 independent experiments) were plotted and further analyzed as a superposition of several normal (Gaussian) distributions for nucleosomes or nucleosome-PARP2 complexes. […]

[4] = 0.5 mM ion, independent measurements

[Cl-].[Cl-].[Zn+2] [Zn2+, ZnCl2]
effect of ions on the structure of the WGR domain (CD) [1]: significantly changes
content of b-sheet in the WGR domain [1, 4]: 26.6 and 28 and 25.5 and 34.1 and 29.7
content of random coil in the WGR domain [1, 4]: 48.2 and 46 and 53.4 and 46.2
content of turn in the WGR domain [1, 4]: 15.4 and 13.9 and 14.7 and 15.1 and 13.3
intensity of fluorescence spectrum of tryptophan residues of PARP2 after addition of ions [2]: increased
EPR maximum of the new peak in the EPR profile [3]: 0.4

From PMC12209172, “Poly(ADP-ribose)polymerase 2 is zinc-dependent enzyme and nucleosome reorganizer” (Cellular and Molecular Life Sciences: CMLS, 2025)
